According to publication PMC3069143 (Analytical chemistry, 2011):
Like-named read-outs stand apart in the source and are kept apart here.

Key:
rodent [1] = settings: cited from earlier work
rodent [2] = settings: cited from earlier work; for LD50 (in words): rat for styrene and NPYR, mouse for arylamines
Calf thymus ds-DNA [3] = tested on: Calf thymus ds-DNA
human hepatic cell lines = settings: ref Table S2 (SI); cited from earlier work
Calf thymus ds-DNA [4] = assay: ECL genotoxicity array, multi-enzyme; settings: for ECL turnover rate R (in words): arylamines, HLE or MLE, AcCoA + NADPH
[5] = tested on: Salmonella typhimurium TA1535; settings: ref Table S2 (SI); cited from earlier work
[6] = tested on: Salmonella typhimurium TA1538; settings: ref Table S2 (SI); cited from earlier work
[7] = 1 min enzyme reaction, RLE or HLE

Compound: Cc1ccccc1 [toluene]
- TD50 (rodent [1]; liver TD50, rodent): 5390 mg/kg body weight per day
- LD50 (rodent [2]; rodent, single dose): 2250 mg/kg body weight

Compound: C=Cc1ccccc1 [styrene]
- ECL turnover rate R (in words) (Calf thymus ds-DNA [3]): small
- substrate concentration giving measurable ECL increase (Calf thymus ds-DNA [3]): 1 mM
- Comet assay OTM/conc. (human hepatic cell lines): small
- LD50 (in words) (rodent [2]): small

Compound: Cc1ccc(N)cc1N [2,4-DAT, 2,4-diaminotoluene]
- R relative to 2,6-DAT (Calf thymus ds-DNA [4]; isomer pair 2,4-DAT vs 2,6-DAT): 3 fold
- LD50 (in words) (rodent [2]): small

Compound: CC(=O)Nc1ccc2c(c1)Cc1ccccc1-2 [2-AAF, N-acetyl-2-aminofluorene]
- Comet assay OTM/conc. (human hepatic cell lines): large

Compound: CN(CCCC(=O)c1cccnc1)N=O [NNK, 4-(methylnitrosamino)-1-(3-pyridyl)-1-butanone]
- ECL produced relative to styrene (Calf thymus ds-DNA [3]; 0.2 mM substrate, either RLE or HLE, NADPH regenerating system): 2–3 times
- substrate concentration giving measurable ECL increase (Calf thymus ds-DNA [3]; [7]): 0.2 mM
- Ames mutagenicity, TA1535 [5]: only slightly mutagenic
- Ames mutagenicity, TA1538 [6]: not mutagenic
- Comet assay OTM/conc. (human hepatic cell lines): small

Compound: Cc1c(N)cccc1N [2,6-DAT, 2,6-diaminotoluene]
- induction of liver tumors (rodent [1]; rat models): fails to induce liver tumors
- ECL turnover rate R (in words) (Calf thymus ds-DNA [4]): small but significant

Compound: Nc1ccc2ccccc2c1 [2-NA, 2-naphthylamine]
- ECL turnover rate R (in words) (Calf thymus ds-DNA [4]): did not generate large R

Compound: Nc1ccc(-c2ccccc2)cc1 [4-ABP, 4-aminobiphenyl]
- ECL turnover rate R (in words) (Calf thymus ds-DNA [4]): largest

Compound: O=NN1CCCC1 [NPYR, N-nitrosopyrrolidine]
- substrate concentration giving measurable ECL increase (Calf thymus ds-DNA [3]; [7]): 0.2 mM
- Ames mutagenicity, TA1535 [5]: only slightly mutagenic
- Ames mutagenicity, TA1538 [6]: not mutagenic
- LD50 (in words) (rodent [2]): small
